Measured values: patent US12493040B2, “Cancer detection method using sense of smell of nematode” (HIROTSU BIO SCIENCE INC., priority 2013, dated 2025)

System: RNAi-treated eri-1 (mg366) nematodes
Assay: RNAi screening of olfactory receptor genes: chemotaxis assay of RNAi-treated nematodes to odorants
Type: in vivo, Caenorhabditis elegans
Details: low concentration of attractant
Description: The RNAi assay was carried out by performing an RNAi method involving the feeding (feeding RNAi method) of eri-1 (mg366) (19), using an Ahringer library (37).
Nine adult eri-1 mutants were placed on an NGM plate containing isopropyl 1-D-1-thiogalactopyranoside (0.19 g/L), ampicillin (60 mg/L), and Escherichia coli (E. coli), and were then cultured for 4 days. Subsequently, the adult worms were used in a chemotaxis assay. The chemotaxis assay was carried out as previously reported (6, 17). In the chemotaxis assay, the present inventor has used 30 to 50 worms in each experiment in which 1 μl of 10^−3- or 10^−4-diluted odorant (low concentration), or 1 and 5 μl of undiluted odorants (high concentration) were used.
The z score and a control value in each single test from 2SD were calculated in all days (Table 3) or every day. The z score was used as a threshold indicating a great difference (−1.96 and 1.96, P<0.05). […] Accordingly, the present inventor has used the z score±1 (−0.96 and 0.96, P<0.33) as a weaker threshold.

SMILES: O=Cc1ccccc1 [benzaldehyde]
- chemotaxis index (srh-10 RNAi-treated nematodes): 0.12
- chemotaxis index (srh-11 RNAi-treated nematodes): −0.11
- chemotaxis index (srh-15 RNAi-treated nematodes): −0.13
- chemotaxis index (srh-16 RNAi-treated nematodes): 0.83
- chemotaxis index (srh-18 RNAi-treated nematodes): 0.05
- chemotaxis index (srh-19 RNAi-treated nematodes): 0.64
- chemotaxis index (srh-22 RNAi-treated nematodes): 0.28
- chemotaxis index (srh-23 RNAi-treated nematodes): 0.54
- chemotaxis index (srh-24 RNAi-treated nematodes): 0.69
- chemotaxis index (srh-214 RNAi-treated nematodes): 0.57
- chemotaxis index (srh-216 RNAi-treated nematodes): 0.47
- chemotaxis index (srh-217 RNAi-treated nematodes): 0.76
- chemotaxis index (srh-220 RNAi-treated nematodes): 0.61
- chemotaxis index (srh-222 RNAi-treated nematodes): 0.76
- chemotaxis index (srh-223 RNAi-treated nematodes): 0.49
- chemotaxis index (srh-227 RNAi-treated nematodes): 0.56
- chemotaxis index (srh-229 RNAi-treated nematodes): −0.21
- chemotaxis index (srh-233 RNAi-treated nematodes): −0.11
- chemotaxis index (srh-235 RNAi-treated nematodes): 0.32
- chemotaxis index (srh-236 RNAi-treated nematodes): 0.31
- chemotaxis index (srh-239 RNAi-treated nematodes): 0.34
- chemotaxis index (srh-241 RNAi-treated nematodes): 0.66
- chemotaxis index (srh-243 RNAi-treated nematodes): 0.30
- chemotaxis index (srh-244 RNAi-treated nematodes): 0.43
- chemotaxis index (srh-247 RNAi-treated nematodes): 0.40
- chemotaxis index (srh-250 RNAi-treated nematodes): 0.40
- chemotaxis index (srh-251 RNAi-treated nematodes): 0.70
- chemotaxis index (srh-252 RNAi-treated nematodes): 0.71
- chemotaxis index (srh-258 RNAi-treated nematodes): 0.40
- chemotaxis index (srh-261 RNAi-treated nematodes): 0.45
- chemotaxis index (srh-264 RNAi-treated nematodes): 0.38
- chemotaxis index (srh-266 RNAi-treated nematodes): 0.32
- chemotaxis index (srh-274 RNAi-treated nematodes): 0.45
- chemotaxis index (srh-275 RNAi-treated nematodes): 0.16
- chemotaxis index (srh-276 RNAi-treated nematodes): 0.56
- chemotaxis index (srh-277 RNAi-treated nematodes): 0.49
- chemotaxis index (srh-279 RNAi-treated nematodes): 0.34
- chemotaxis index (srh-281 RNAi-treated nematodes): 0.33
- chemotaxis index (srh-282 RNAi-treated nematodes): 0.24
- chemotaxis index (srh-283 RNAi-treated nematodes): 0.21
- chemotaxis index (srh-284 RNAi-treated nematodes): 0.29
- chemotaxis index (srh-291 RNAi-treated nematodes): 0.58
- chemotaxis index (srh-292 RNAi-treated nematodes): 0.48
- chemotaxis index (srh-293 RNAi-treated nematodes): 0.31
- chemotaxis index (srh-297 RNAi-treated nematodes): 0.63
- chemotaxis index (srh-298 RNAi-treated nematodes): 0.66
- chemotaxis index (srh-308 RNAi-treated nematodes): 0.14

SMILES: CC(C)CCO [isoamyl alcohol]
- chemotaxis index (srh-10 RNAi-treated nematodes): −0.12
- chemotaxis index (srh-11 RNAi-treated nematodes): 0.05
- chemotaxis index (srh-15 RNAi-treated nematodes): 0.59
- chemotaxis index (srh-16 RNAi-treated nematodes): 0.86
- chemotaxis index (srh-18 RNAi-treated nematodes): 0.67
- chemotaxis index (srh-19 RNAi-treated nematodes): 0.67
- chemotaxis index (srh-22 RNAi-treated nematodes): 0.58
- chemotaxis index (srh-23 RNAi-treated nematodes): 0.54
- chemotaxis index (srh-24 RNAi-treated nematodes): 0.58
- chemotaxis index (srh-214 RNAi-treated nematodes): 0.63
- chemotaxis index (srh-216 RNAi-treated nematodes): 0.76
- chemotaxis index (srh-217 RNAi-treated nematodes): −0.12
- chemotaxis index (srh-220 RNAi-treated nematodes): 0.81
- chemotaxis index (srh-222 RNAi-treated nematodes): 0.80
- chemotaxis index (srh-223 RNAi-treated nematodes): 0.51
- chemotaxis index (srh-227 RNAi-treated nematodes): 0.43
- chemotaxis index (srh-229 RNAi-treated nematodes): −0.20
- chemotaxis index (srh-233 RNAi-treated nematodes): 0.36
- chemotaxis index (srh-235 RNAi-treated nematodes): 0.64
- chemotaxis index (srh-236 RNAi-treated nematodes): 0.41
- chemotaxis index (srh-239 RNAi-treated nematodes): 0.57
- chemotaxis index (srh-241 RNAi-treated nematodes): 0.63
- chemotaxis index (srh-243 RNAi-treated nematodes): 0.46
- chemotaxis index (srh-244 RNAi-treated nematodes): 0.74
- chemotaxis index (srh-247 RNAi-treated nematodes): 0.60
- chemotaxis index (srh-250 RNAi-treated nematodes): 0.47
- chemotaxis index (srh-251 RNAi-treated nematodes): 0.75
- chemotaxis index (srh-252 RNAi-treated nematodes): 0.59
- chemotaxis index (srh-258 RNAi-treated nematodes): 0.78
- chemotaxis index (srh-261 RNAi-treated nematodes): 0.51
- chemotaxis index (srh-264 RNAi-treated nematodes): 0.61
- chemotaxis index (srh-266 RNAi-treated nematodes): 0.25
- chemotaxis index (srh-274 RNAi-treated nematodes): 0.44
- chemotaxis index (srh-275 RNAi-treated nematodes): 0.39
- chemotaxis index (srh-276 RNAi-treated nematodes): 0.58
- chemotaxis index (srh-277 RNAi-treated nematodes): 0.54
- chemotaxis index (srh-279 RNAi-treated nematodes): 0.53
- chemotaxis index (srh-281 RNAi-treated nematodes): 0.51
- chemotaxis index (srh-282 RNAi-treated nematodes): 0.52
- chemotaxis index (srh-283 RNAi-treated nematodes): 0.34
- chemotaxis index (srh-284 RNAi-treated nematodes): 0.73
- chemotaxis index (srh-291 RNAi-treated nematodes): 0.80
- chemotaxis index (srh-292 RNAi-treated nematodes): 0.43
- chemotaxis index (srh-293 RNAi-treated nematodes): 0.71
- chemotaxis index (srh-297 RNAi-treated nematodes): 0.42
- chemotaxis index (srh-298 RNAi-treated nematodes): 0.68
- chemotaxis index (srh-308 RNAi-treated nematodes): 0.56
